pIC50: −log10 of the molar value.
Legend:
Assay type in all cases: functional, cell-based
SAOS-2 = assay: cells; details: Homo sapiens;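 also: growth inhibition of human Saos-2 cells determined by a cell viability assay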
Description: SANGER: Inhibition of human Saos-2 cell growth in a cell viability assay.

SW48 = assay: cells; details: Homo sapiens;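 also: growth inhibition of SW48 cells, read out with a cell viability assay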
Description: SANGER: Inhibition of human SW48 cell growth in a cell viability assay.

SUP-T1 = assay: cells; details: Homo sapiens;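 also: growth inhibition of human SUP-T1 cells, read out as cell viability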
Description: SANGER: Inhibition of human SUP-T1 cell growth in a cell viability assay.

NCI-H187 = assay: cells; details: Homo sapiens;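 also: growth inhibition of NCI-H187 cells, read out as cell viability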
Description: SANGER: Inhibition of human NCI-H187 cell growth in a cell viability assay.

K052 = assay: cells; details: Homo sapiens;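 also: Read-out from a cell viability assay, IC50 reflecting suppression of K052 cell growth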
Description: SANGER: Inhibition of human K052 cell growth in a cell viability assay.

T-24 = assay: cells; details: Homo sapiens;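 also: growth inhibition of T-24 cells, read out with a cell viability assay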
Description: SANGER: Inhibition of human T-24 cell growth in a cell viability assay.

HCC1569 = assay: cells; details: Homo sapiens;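 also: growth inhibition of human HCC1569 cells, read out with a cell viability assay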
Description: SANGER: Inhibition of human HCC1569 cell growth in a cell viability assay.

CAL-72 = assay: cells; details: Homo sapiens;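 also: cell viability assay measuring inhibition of proliferation in the CAL-72 cell line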
Description: SANGER: Inhibition of human CAL-72 cell growth in a cell viability assay.

MKN-1 = assay: cells; details: Homo sapiens;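 also: growth inhibition of human MKN1 cells, read out by a cell viability measurement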
Description: SANGER: Inhibition of human MKN1 cell growth in a cell viability assay.

HSC-3 = assay: cells; details: Homo sapiens
Description: SANGER: Inhibition of human HSC-3 cell growth in a cell viability assay.

KYSE-410 = assay: cells; details: Homo sapiens;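 also: growth inhibition of KYSE-410 cells, measured through a cell viability readout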
Description: SANGER: Inhibition of human KYSE-410 cell growth in a cell viability assay.

COLO-678 = assay: cells; details: Homo sapiens
Description: SANGER: Inhibition of human COLO-678 cell growth in a cell viability assay.

HGC-27 = assay: cells; details: Homo sapiens;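 also: growth inhibition of human HGC-27 cells, read out in a cell viability assay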
Description: SANGER: Inhibition of human HGC-27 cell growth in a cell viability assay.

KU-19-19 = assay: cells; details: Homo sapiens
Description: SANGER: Inhibition of human KU-19-19 cell growth in a cell viability assay.

GDM-1 = assay: cells; details: Homo sapiens;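 also: cell viability readout used to measure growth inhibition of human GDM-1 cells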
Description: SANGER: Inhibition of human GDM-1 cell growth in a cell viability assay.

BC-3 = assay: cells; details: Homo sapiens;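 also: cell viability assay measuring growth inhibition of human BC-3 cells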
Description: SANGER: Inhibition of human BC-3 cell growth in a cell viability assay.

NCI-H1993 = assay: cells; details: Homo sapiens;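 also: growth inhibition of the cancer cell line, assessed with a cell viability assay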
Description: SANGER: Inhibition of human NCI-H1993 cell growth in a cell viability assay.

SW1417 = assay: cells; details: Homo sapiens;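 also: growth inhibition of human SW1417 cells, read out with a cell viability assay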
Description: SANGER: Inhibition of human SW1417 cell growth in a cell viability assay.

SNU-387 = assay: cells; details: Homo sapiens
Description: SANGER: Inhibition of human SNU-387 cell growth in a cell viability assay.

SJRH30 = assay: cells; details: Homo sapiens;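 also: growth inhibition of human SJRH30 cells, read out with a cell viability assay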
Description: SANGER: Inhibition of human SJRH30 cell growth in a cell viability assay.

EVSA-T = assay: cells; details: Homo sapiens;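 also: growth inhibition of EVSA-T cells, read out with a cell viability assay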
Description: SANGER: Inhibition of human EVSA-T cell growth in a cell viability assay.

TYK-nu = assay: cells; details: Homo sapiens;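 also: growth inhibition of human TYK-nu cells, read out by a cell viability assay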
Description: SANGER: Inhibition of human TYK-nu cell growth in a cell viability assay.

HCC1419 = assay: cells; details: Homo sapiens;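 also: growth inhibition of human HCC1419 cells, read out as cell viability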
Description: SANGER: Inhibition of human HCC1419 cell growth in a cell viability assay.

DV-90 = assay: cells; details: Homo sapiens;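 also: Read-out is a viability assay, with IC50 reflecting the drop in DV-90 cell growth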
Description: SANGER: Inhibition of human DV-90 cell growth in a cell viability assay.

HT-3 = assay: cells; details: Homo sapiens;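 also: growth inhibition measured with a cell viability readout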
Description: SANGER: Inhibition of human HT-3 cell growth in a cell viability assay.

L-540 = assay: cells; details: Homo sapiens;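 also: growth inhibition of the human L-540 cell line, read out with a viability assay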
Description: SANGER: Inhibition of human L-540 cell growth in a cell viability assay.

KYSE-520 cell line = assay: cells; details: Homo sapiens;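 also: growth inhibition of human KYSE-520 cells, read out with a viability assay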
Description: SANGER: Inhibition of human KYSE-520 cell growth in a cell viability assay.

NCI-H520 = assay: cells; details: Homo sapiens;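 also: growth inhibition of NCI-H520 cells, measured by a cell viability assay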
Description: SANGER: Inhibition of human NCI-H520 cell growth in a cell viability assay.

NCI-H2009 = assay: cells; details: Homo sapiens;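 also: cell viability assay measuring inhibition of NCI-H2009 cell growth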
Description: SANGER: Inhibition of human NCI-H2009 cell growth in a cell viability assay.

639-V = assay: cells; details: Homo sapiens;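 also: growth inhibition of 639-V cells, read out with a cell viability assay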
Description: SANGER: Inhibition of human 639-V cell growth in a cell viability assay.

BC1 cell line = assay: SANGER: Inhibition of human BC-1 cell growth in a cell viability assay.
JIYOYE = assay: cells; details: Homo sapiens
Description: SANGER: Inhibition of human JiyoyeP-2003 cell growth in a cell viability assay.

ST486 = assay: SANGER: Inhibition of human ST486 cell growth in a cell viability assay.
HT55 = assay: cells; details: Homo sapiens;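 also: cell viability readout measuring growth inhibition of human HT55 cells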
Description: SANGER: Inhibition of human HT55 cell growth in a cell viability assay.

NCI-H292 = assay: cells; details: Homo sapiens;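 also: growth inhibition of NCI-H292 cells, read out with a cell viability assay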
Description: SANGER: Inhibition of human NCI-H292 cell growth in a cell viability assay.

GCT = assay: cells; details: Homo sapiens;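 also: GCT cell line proliferation inhibition, read out with a cell viability assay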
Description: SANGER: Inhibition of human GCT cell growth in a cell viability assay.

SCC-3 = assay: cells; details: Homo sapiens;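 also: cell viability assay measuring inhibition of SCC-3 cell growth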
Description: SANGER: Inhibition of human SCC-3 cell growth in a cell viability assay.

OE33 = assay: cells; details: Homo sapiens;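 also: growth inhibition of human OE33 cells, measured by a cell viability assay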
Description: SANGER: Inhibition of human OE33 cell growth in a cell viability assay.

SW780 = assay: cells; details: Homo sapiens;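 also: growth inhibition of the cells, read out with a cell viability assay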
Description: SANGER: Inhibition of human SW780 cell growth in a cell viability assay.

U-118-MG = assay: cells; details: Homo sapiens
Description: SANGER: Inhibition of human U-118-MG cell growth in a cell viability assay.

C32 = assay: cells; details: Homo sapiens;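 also: cell viability assay, with IC50 reflecting inhibition of C32 cell growth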
Description: SANGER: Inhibition of human C32 cell growth in a cell viability assay.

KYSE-510 = assay: cells; details: Homo sapiens;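 also: cell viability readout used to measure how strongly growth of the cell line is suppressed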
Description: SANGER: Inhibition of human KYSE-510 cell growth in a cell viability assay.

TT = assay: cells; details: Homo sapiens
Description: SANGER: Inhibition of human TT cell growth in a cell viability assay.

SCC-4 = assay: cells; details: Homo sapiens;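 also: growth inhibition of human SCC-4 cells, read out as cell viability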
Description: SANGER: Inhibition of human SCC-4 cell growth in a cell viability assay.

SNU-C1 = assay: cells; details: Homo sapiens;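 also: growth inhibition of SNU-C1 human cells, read out by a cell viability assay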
Description: SANGER: Inhibition of human SNU-C1 cell growth in a cell viability assay.

SF-295 = assay: cells; details: Homo sapiens;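 also: growth inhibition of SF-295 cells, read out with a cell viability assay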
Description: SANGER: Inhibition of human SF295 cell growth in a cell viability assay.

NCI-H2227 = assay: cells; details: Homo sapiens;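 also: growth inhibition of the human cell line, read out with a cell viability assay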
Description: SANGER: Inhibition of human NCI-H2227 cell growth in a cell viability assay.

SNU-16 = assay: cells; details: Homo sapiens;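 also: growth inhibition of human SNU-16 cells, determined with a cell viability readout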
Description: SANGER: Inhibition of human NCI-SNU-16 cell growth in a cell viability assay.

AN3-CA = assay: cells; details: Homo sapiens;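 also: growth inhibition of human AN3-CA cells measured by a cell viability assay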
Description: SANGER: Inhibition of human AN3-CA cell growth in a cell viability assay.

A-427 = assay: cells; details: Homo sapiens;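 also: growth inhibition of human A-427 cells, read out by a cell viability assay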
Description: SANGER: Inhibition of human A427 cell growth in a cell viability assay.

MC-IXC = assay: cells; details: Homo sapiens;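 also: growth inhibition of MC-IXC cells, read out with a cell viability assay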
Description: SANGER: Inhibition of human MC-IXC cell growth in a cell viability assay.

HOP-92 = assay: cells; details: Homo sapiens;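 also: cell viability readout, with IC50 reflecting inhibition of HOP-92 cell growth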
Description: SANGER: Inhibition of human HOP-92 cell growth in a cell viability assay.

MG-63 = assay: cells; details: Homo sapiens;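 also: growth inhibition of human MG-63 cells, read out with a cell viability assay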
Description: SANGER: Inhibition of human MG-63 cell growth in a cell viability assay.

DBTRG-05MG = assay: cells; details: Homo sapiens;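 also: cell viability assay measuring growth inhibition of human DBTRG-05MG cells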
Description: SANGER: Inhibition of human DBTRG-05MG cell growth in a cell viability assay.

NCI-H524 = assay: cells; details: Homo sapiens;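 also: growth inhibition of human NCI-H524 cells, read out through a cell viability assay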
Description: SANGER: Inhibition of human NCI-H524 cell growth in a cell viability assay.

NCCIT = assay: SANGER: Inhibition of human NCCIT cell growth in a cell viability assay.
Daoy = assay: cells; details: Homo sapiens;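 also: daoy cell growth inhibition, read out as cell viability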
Description: SANGER: Inhibition of human Daoy cell growth in a cell viability assay.

EW-7 = assay: SANGER: Inhibition of human EW-7 cell growth in a cell viability assay.
VM-CUB-1 = assay: cells; details: Homo sapiens;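 also: cell viability assay measuring growth inhibition of the human VM-CUB-1 cell line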
Description: SANGER: Inhibition of human VM-CUB-1 cell growth in a cell viability assay.

A2780 = assay: cells; details: Homo sapiens;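 also: growth inhibition of A2780 cells, read out with a cell viability assay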
Description: SANGER: Inhibition of human A2780 cell growth in a cell viability assay.

NCI-H1522 = assay: cells; details: Homo sapiens;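 also: growth inhibition of NCI-H1522 cells, read out with a cell viability assay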
Description: SANGER: Inhibition of human NCI-H1522 cell growth in a cell viability assay.

LOUCY = assay: cells; details: Homo sapiens
Description: SANGER: Inhibition of human LOUCY cell growth in a cell viability assay.

Question: Which results are given for `C/C=C(/C)C(=O)O[C@H]1C(C)=C2[C@H]([C@@H]1OC(=O)CCCCCCC)[C@@](C)(OC(C)=O)C[C@H](OC(=O)CCC)[C@@]1(O)[C@H]2OC(=O)[C@@]1(C)O` [THAPSIGARGIN]?
Answer: pIC50 (SAOS-2): 7.83; pIC50 (SW48): 8.78; pIC50 (SUP-T1): 7.26; pIC50 (NCI-H187): 7.27; pIC50 (K052): 6.30; pIC50 (T-24): 7.91; pIC50 (HCC1569): 7.75; pIC50 (CAL-72): 8.64; pIC50 (MKN-1): 7.32; pIC50 (HSC-3): 7.95; pIC50 (KYSE-410): > 8.70; pIC50 (COLO-678): < 6.29; pIC50 (HGC-27): > 8.70; pIC50 (KU-19-19): 7.10; pIC50 (GDM-1): 6.64; pIC50 (BC-3): 8.35; pIC50 (NCI-H1993): < 6.29; pIC50 (SW1417): 6.47; pIC50 (SNU-387): 8.66; pIC50 (SJRH30): 8.05; pIC50 (EVSA-T): 6.92; pIC50 (TYK-nu): > 8.70; pIC50 (HCC1419): < 6.29; pIC50 (DV-90): 7.54; pIC50 (HT-3): 7.66; pIC50 (L-540): 7.12; pIC50 (KYSE-520 cell line): 7.68; pIC50 (NCI-H520): > 8.70; pIC50 (NCI-H2009): 8.79; pIC50 (639-V): 9.29; pIC50 (BC1 cell line): 7.64; pIC50 (JIYOYE): 8.14; pIC50 (ST486): 8.75; pIC50 (HT55): < 6.29; pIC50 (NCI-H292): 7.83; pIC50 (GCT): 8.28; pIC50 (SCC-3): 7.38; pIC50 (OE33): 7.33; pIC50 (SW780): < 6.29; pIC50 (U-118-MG): 7.50; pIC50 (C32): 6.51; pIC50 (KYSE-510): > 8.70; pIC50 (TT): 6.66; pIC50 (SCC-4): 7.98; pIC50 (SNU-C1): < 6.29; pIC50 (SF-295): > 8.70; pIC50 (NCI-H2227): < 6.29; pIC50 (SNU-16): 6.72; pIC50 (AN3-CA): > 8.70; pIC50 (A-427): 8.67; pIC50 (MC-IXC): 7.42; pIC50 (HOP-92): 8.28; pIC50 (MG-63): 8.55; pIC50 (DBTRG-05MG): 7.93; pIC50 (NCI-H524): 7.15; pIC50 (NCCIT): > 8.70; pIC50 (Daoy): 8.27; pIC50 (EW-7): 8.20; pIC50 (VM-CUB-1): 7.66; pIC50 (A2780): > 8.70; pIC50 (NCI-H1522): < 6.29; pIC50 (LOUCY): 7.52

Question: What does the source list for `CO[C@@]12[C@H](COC(N)=O)C3=C(C(=O)C(C)=C(N)C3=O)N1C[C@@H]1N[C@@H]12` [MITOMYCIN]?
Answer: pIC50 (SAOS-2): 5.85; pIC50 (SW48): 6.71; pIC50 (SUP-T1): 6.96; pIC50 (NCI-H187): 6.15; pIC50 (K052): 6.83; pIC50 (T-24): 6.61; pIC50 (HCC1569): 6.19; pIC50 (CAL-72): < 4.80; pIC50 (MKN-1): 6.27; pIC50 (HSC-3): 7.12; pIC50 (KYSE-410): 6.23; pIC50 (COLO-678): 5.54; pIC50 (HGC-27): 7.31; pIC50 (KU-19-19): 5.47; pIC50 (GDM-1): 6.42; pIC50 (BC-3): 6.67; pIC50 (NCI-H1993): < 4.80; pIC50 (SW1417): 6.00; pIC50 (SNU-387): 5.53; pIC50 (SJRH30): 5.78; pIC50 (EVSA-T): 5.80; pIC50 (TYK-nu): 7.23; pIC50 (HCC1419): 5.46; pIC50 (DV-90): 5.53; pIC50 (HT-3): > 7.20; pIC50 (L-540): 7.02; pIC50 (KYSE-520 cell line): 6.11; pIC50 (NCI-H520): 6.77; pIC50 (NCI-H2009): 6.54; pIC50 (639-V): > 7.20; pIC50 (BC1 cell line): 7.05; pIC50 (JIYOYE): 6.20; pIC50 (ST486): 6.31; pIC50 (HT55): 5.71; pIC50 (NCI-H292): 6.05; pIC50 (GCT): 5.34; pIC50 (SCC-3): > 7.20; pIC50 (OE33): 6.47; pIC50 (SW780): < 4.80; pIC50 (U-118-MG): 5.50; pIC50 (C32): 5.82; pIC50 (KYSE-510): > 7.20; pIC50 (TT): 5.43; pIC50 (SCC-4): 6.41; pIC50 (SNU-C1): 5.72; pIC50 (SF-295): > 7.20; pIC50 (NCI-H2227): 5.20; pIC50 (SNU-16): 5.17; pIC50 (AN3-CA): 6.28; pIC50 (A-427): 6.52; pIC50 (MC-IXC): > 7.20; pIC50 (HOP-92): 5.71; pIC50 (MG-63): 6.65; pIC50 (DBTRG-05MG): 6.24; pIC50 (NCI-H524): 5.57; pIC50 (NCCIT): 6.00; pIC50 (Daoy): 7.06; pIC50 (EW-7): > 7.20; pIC50 (VM-CUB-1): 6.58; pIC50 (A2780): 6.97; pIC50 (NCI-H1522): 5.49; pIC50 (LOUCY): 7.58

Reference: ChEMBL document CHEMBL1201861, “Genomics of Drug Sensitity in Cancer screening data, Wellcome Trust Sanger Institute”
